“Also recorded” adds a separate entry of the source. Where a SMILES comes first, the peptide text is derived from it. Where no end group is shown, it is not given here. [ ]: non-standard residue; d: D form. The star is where a group is joined. Palmitoyl = CCCCCCCCCCCCCCCC(=O)*
Legend:
[1] = TEM of peptide assemblies (fibril formation / assembly); assay type: physicochemical; settings: for TEM morphology (in words): 1 mg/mL in PBS; for Assembly without hydrophob residue: corresponding peptide without hydrophobic moiety; for Assembly: peptide amphiphile
Description: The peptides were predissolved in DMSO to a concentration of 10 mg/mL. The fibril formation was induced by further diluting the solution to a final incubation concentration of 650 µM or 1 mg/mL in PBS as indicated in the text and incubated for 1 d (1 day) at rt (room temperature, 20 °C - 25 °C). Other concentrations as described herein were achieved by further dilution of preformed fibrils.
(§1) Transmission electron microscopy (TEM) measurements, Thioflavin (ThT), zeta-potential measurements for fibril characterization were prepared and conducted according to prior art procedures. […] Fibrils were defined as distinct, if no visible structures could be identified in fluorescence and brightfield microscopy.

HeLa cells = experiment: Confocal laser scanning microscopy and degradation study with PA library and HeLa cells; assay type: cell-based; settings: for association with cellular membranes: 2 µg added to 20.000 HeLa cells, 30 min; for degradability (in words) / Degradability / % (rel. to initial particles > 10 µm^2): HeLa cells; for degradability (in words): 3 days; for Degradability / % (rel. to initial particles > 10 µm^2): 3 d relative to 30 min
Description: In general, the procedure for determine whether a PA is degraded or not, is conducted by confocal laser scanning microscopy of Proteostat stained PAs which are added to Hela cells (2 µg peptide added to 20.000 cells). Microscopy is conducted at day 0 (d0, after 30 min of incubation) and at day 3 (d3, after 72 h of incubation). The number of aggregates >10 µm^2 is counted via 3D object counter in imaged in an area of 1008 µm × 1008 µm.
A PA is considered to be degradable if the number and the size of aggregates are reduced after 3 days. The efficiency is determined by the percentual degradation (aggregate number at d3 / aggregate number at d0). For the number of aggregation three technical replicates were evaluated for each sample. A large deviation represents a nonhomogeneous spatial distribution of aggregates.
Confocal laser scanning microscopy and degradation study with PA library and HeLa cells: Confocal laser scanning microscopy studies were performed for the visualization of the cell-PA interaction. HeLa cells were seeded one day prior to conducting the assay (20,000/well) in an 8-well IBIDI slide. […] The nucleus of the HeLa cells was stained with Hoechst 33342 (NucBlue™, Thermo Fisher Scientific). The peptide solution mixture was transferred to the HeLa cells and incubated for 30 min at 37°C before washing three times with PBS. […] For the evaluation of aggregate degradation, the samples were further incubated at 37°C for 3 d and analyzed without any additional washing step. […] The number of aggregates were determined by counting aggregates larger than the threshold 10 µm^2 in an area of 1008 × 1008 µm and repeated in three technical triplicates.

[2] = ATR-FT-IR determination of β-sheet content; assay type: physicochemical; settings: 1 mg/mL in PBS lyophilized; integral at 1630 cm^-1 relative to 1650-1700 cm^-1
Description: ATR-FT-IR: ATR-IR spectra acquisition and the calculation of β-sheet content were conducted according prior art procedures. Briefly, FT-IR spectra of solid samples were recorded after lyophilization of fibril solutions using a Bruker Tensor II spectrometer equipped with a diamond crystal as ATR element with a spectral resolution of 2 cm^-1, each spectrum was an average of 64 scans. The data was processed with Origin software. β-sheet amount was determined by calculating the integral of the peak at 1630 cm-1 (β-sheet) relative to the integral between 1650-1700 cm-1 (native structure) from the 2nd derivative of the FT-IR spectra.

[3] = Fluorescence microscopy of ThT-stained fibrils (µm-sized aggregates); assay type: physicochemical; settings: 1 mg/mL stained with 50 µM ThT
Description: as §1
Fluorescence microscopy: 1 µL Fibrils (1 mg mL^-1) were stained with 9 µL, 50 µM ThT. 10 µL of the stained fibrils (0.1 mg mL^-1) were placed on a microscopy glass. Fluorescence microscopy measurements were performed on a Leica DMi8 microscope with 10x air objective and equipped with a Leica MC170 HD camera with a filter setting λem = 527/30 nm upon excitation at λex = 480/40 nm) and processed with the Leica LASX software.

HIV-1 = settings: for Infectivity enhancing N fold at 1.3 µM: relative to virus only; for enhancement of HIV-1 infection / transduction (in words): 6.5 µM, 1.3 µM, 0.26 µM;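 on all read-outs here: TZM-bl reporter cells exposed to HIV-1 with peptide fibrils, infection read out as β-galactosidase luminescence, compared with virus alone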
Description: HIV-1 Infection Assay with TZM-bl cells: The effect of peptide fibrils on HIV-1 infection was studied via a luminescence assay for β-galactosidase, which was reported by TZM-bl cells upon infection. The HIV-1 infection assay was conducted in three technical replicates and repeated in three independent experiments unless stated otherwise.

Row | Molecule | TEM morphology (in words) [1] | Assembly without hydrophob residue [1] | Assembly [1] | association with cellular membranes (HeLa cells) | degradability (in words) (HeLa cells) | Degradability / % (rel. to initial particles > 10 µm^2) (HeLa cells) [%] | aggregate number increases (HeLa cells; d3 relative to d0) [%] | β-sheet amount [2] [%] | fluorescent, µm-sized aggregates (ThT staining) [3] | enhances infectivity at 1.3 µM concentration, times more efficient compared to virus only infection (HIV-1) [times] | Infectivity enhancing N fold at 1.3 µM (HIV-1) [N fold] | aggregate number decreases / degraded in presence of HeLa cells within 3 days (HeLa cells; d3 relative to d0) [%] | infectivity enhancement at 1.3 µM concentration compared to virus only infection (in words) (HIV-1) | enhancement of HIV-1 infection / transduction (in words) (HIV-1)
1 | CCCCCCCCCCCCCCCC(=O)N[C@@H](CC(N)=O)C(=O)N[C@@H](Cc1ccccc1)C(=O)N[C@@H](Cc1ccc(O)cc1)C(=O)N[C@@H](CC(C)C)C(=O)N[C@@H](CCC(N)=O)C(=O)N[C@H](C(=O)N[C@@H](CC(N)=O)C(=O)N[C@@H](CCCCN)C(=O)N[C@H](C(=O)N[C@@H](CC(N)=O)C(=O)N[C@@H](CCCCN)C(N)=O)[C@@H](C)CC)C(C)C [Pat27] (Palmitoyl-NFYLQVNKINK-NH2) | fibrillar morphologies | Yes | Yes | association with cellular membranes | cannot be degraded; also recorded: not efficiently degradable; also recorded: non-degradable PA | -123 | 123 | 60 | fluorescent, µm-sized aggregates | 5 | 5±1 |  |  | 
2 | CCCCCCCCCCCCCCCC(=O)N[C@H](C(=O)N[C@H](C(=O)N[C@@H](C)C(=O)N[C@@H](C)C(=O)N[C@@H](Cc1c[nH]cn1)C(=O)N[C@@H](Cc1c[nH]cn1)C(=O)N[C@@H](Cc1c[nH]cn1)C(N)=O)C(C)C)C(C)C [Pat24, C16-VVAAHHH-NH2] (Palmitoyl-VVAAHHH-NH2) | fibrillar morphologies | No | Yes | association with cellular membranes | cannot efficiently be degraded; also recorded: not efficiently degradable; also recorded: non-degradable PA | 26 |  | 70 | fluorescent, µm-sized aggregates |  | 2±0 | 26 | does not enhance infectivity | do not efficiently enhance infectivity
3 | CCCCCCCCCCCCCCCC(=O)NCC(=O)N[C@@H](CCCCN)C(=O)N[C@H](C(=O)NCC(=O)N[C@@H](CO)C(=O)N[C@@H](CCCCN)C(N)=O)C(C)C [Pat30, C16-GKVGSK-NH2] (Palmitoyl-GKVGSK-NH2) | fibrillar morphologies | No | Yes | no association with cellular membranes |  |  |  | 41 | less fluorescent, µm-sized aggregates |  | 2±1 |  | does not enhance infectivity | do not efficiently enhance infectivity
4 | CCCCCCCCCCCCCCCC(=O)NCC(=O)NCC(=O)NCC(=O)N[C@@H](CO)C(=O)N[C@@H](CO)C(=O)N[C@@H](CCCCN)C(=O)N[C@@H](CCCCN)C(=O)N[C@@H](CCCCN)C(N)=O [Pat28] (Palmitoyl-GGGSSKKK-NH2) | fibrillar morphologies | No | Yes | no association with cellular membranes |  |  |  | 26 | no fluorescent, µm-sized aggregates |  | 2±1 |  |  | 
5 | WEALKK-NH2 [Pat36, WEALKK-NH2] | no fibrillar morphologies but amorphous aggregates |  |  |  |  |  |  | 31 | no fluorescent, µm-sized aggregates |  |  |  | cannot enhance infectivity | 
6 | LNGGVKK-NH2 [Pat38, LNGGVKK-NH2] | no fibrillar morphologies |  |  |  |  |  |  | 0 | no fluorescent, µm-sized aggregates |  |  |  |  | not potent enhancers of HIV-1 infection
7 | KYIHQNYTKALAGKLV-NH2 [Pat45] | no fibrillar morphologies |  |  |  |  |  |  | 34 | no fluorescent, µm-sized aggregates |  |  |  |  | not potent enhancers of HIV-1 infection
8 | CC(C)[C@@H](N)C(=O)N[C@@H](C(=O)N[C@@H](C(=O)N[C@H](C)C(=O)N[C@H](C)C(=O)N[C@H](C)C(=O)N[C@H](CCCCN)C(=O)N[C@H](CCCCN)C(=O)N[C@H](CCCCN)C(N)=O)C(C)C)C(C)C [Pat33, vvvaaakkk-NH2] (H-[dV][dV][dV][dA][dA][dA][dK][dK][dK]-NH2) | no fibrillar morphologies but amorphous aggregates |  |  |  |  |  |  | 45 | no fluorescent, µm-sized aggregates |  |  |  | cannot enhance infectivity | 
9 | AKAVGK-NH2 [Pat50, AKAVGK-NH2] | no fibrillar morphologies but amorphous aggregates |  |  |  |  |  |  | 33 | no fluorescent, µm-sized aggregates |  |  |  | cannot enhance infectivity | 
10 | AQAKAK-NH2 [Pat35, AQAKAK-NH2] | no fibrillar morphologies but amorphous aggregates |  |  |  |  |  |  | 29 | no fluorescent, µm-sized aggregates |  |  |  | cannot enhance infectivity | 
11 | LLLKK-NH2 [Pat42, LLLKK-NH2] | no fibrillar morphologies |  |  |  |  |  |  | 33 | no fluorescent, µm-sized aggregates |  |  |  | cannot enhance infectivity | 
12 | GKVGSK-NH2 [Pat49, GKVGSK-NH2] | no fibrillar morphologies |  |  |  |  |  |  | 4 | no fluorescent, µm-sized aggregates |  |  |  |  | not potent enhancers of HIV-1 infection

From patent publication EP4458977A1, “SELF-ASSEMBLING PEPTIDE AMPHIPHILES AS RETROVIRAL TRANSDUCTION ENHANCERS” (Max-Planck-Gesellschaft zur Förderung der Wissenschaften …, priority 2023, dated 2024)
